We go through 29 molecules from patent US8653086B2, “Naphthamides as anticancer agents” (Oregon Health & Science University, priority 2008, dated 2014).

SMILES strings stand for the structures.

The test system of series [1] is A549 cells. As to the kind of experiment: A549 cell growth inhibition, MTT (Example 2). It counts as cell-based. The note with it: Homo sapiens, 72 h, mean ± SD of at least two measurements in duplicates unless noted. On the procedure: (§1) HeLa cells (human cervical cancer cells) were obtained from American Type Culture Collection (ATCC) and maintained in Dulbecco's modified Eagle medium (DMEM, Invitrogen, Carlsbad, Calif.) supplemented with 10% (v/v) fetal calf serum (Sigma, St. Louis, Mo.), 10 μg/mL penicillin and 10 μg/mL streptomycin (Invitrogen, Carlsbad, Calif.) at 37° C. under 5% CO2. HeLa cells (2,000 cells/well) were plated in 96-well plates the day before experiment. On the day of experiment, different concentrations of the drugs (final concentration 10^−8-10^−4 M) in duplicates were added to the cells and the cells were further incubated for 72 h. Then, the number of live cells was quantified by 3-(4,5-dimethyl-2-thiazolyl)-2,5-diphenyl-2H-tetrazolium bromide (MIT reagent, Sigma, St. Louis, Mo.).
(§2) Following the same procedure, identical experiments were performed using, A549 cells (human lung cancer cells) and MCF-7 cells (human breast cancer cells).
(§3) The amount of reduced MTT formazan generated by live cells was determined by its absorbance at 570 nm after subtracting the background absorbance at 690 nm. The percent of cell growth was expressed as (A570(treated)−A570(initial))/(A570(vehicle treated)−A570(initial))×100, where A570(initial) represents initial cell population when drugs are added. The GI50 were derived from non-linear regression analysis of the dose-response curve using Prism 4.0 (GraphPad).

For series [2], the system named is HeLa cells. Put plainly: HeLa cell growth inhibition, MTT (Example 2). The class given is cell-based. The note with it: Homo sapiens, 72 h, mean ± SD of at least two measurements in duplicates unless noted. The method, then:
as §1, §3

In series [3] the test system is MCF-7 cells. As to the kind of experiment: MCF-7 cell growth inhibition, MTT (Example 2). It counts as cell-based. The note with it: Homo sapiens, MCF7, 72 h, mean ± SD of at least two measurements in duplicates unless noted. On the procedure:
as §1, §2, §3

Series [4] relates to HeLa cells. As to the kind of experiment: HeLa cancer cell growth inhibition, MTT (Example 6). It counts as cell-based. The note with it: Homo sapiens, 72-h incubation. On the procedure: (§4) HeLa, A549, and MCF-7 cells, in a 96-well plate (1.0×10^5/well) were treated with different concentrations of the compounds for 72 h. Then the number of cells was quantified by incubating cells with MTT reagent (Sigma, 50 μg/mL) for 3 h. The reduced formazan product was solubilized in DMSO to be measured spectrophotometrically at 570 nm.

The subject of series [5] is A549 cells. As to the kind of experiment: A549 cancer cell growth inhibition, MTT (Example 6). It counts as cell-based. The note with it: Homo sapiens, 72-h incubation. On the procedure: as §4
The test system of series [6] is MCF-7 cells. Put plainly: MCF-7 cancer cell growth inhibition, MTT (Example 6). It counts as cell-based. The note with it: Homo sapiens, MCF7, 72-h incubation. On the procedure: as §4
Series [7] is described as follows: Maximum tolerated dose in nude mice. It counts as in vivo. The note with it: for tolerability: ten days. The method, then: The maximum tolerated dose (MTD) of compound 4 and compound 7 was evaluated in nude mice.
In this study 7 groups were established, each with three mice per group. 10 μl/g of a mixture of 10 ml of DMSO and 10 ml sterile saline was administered per day to group I, the control group; compound 4 was administered intravenously at dose levels of 10, 25, and 50 mg/kg and a dose volume of 10 μl/g per day to groups 2-4 respectively; and compound 7 was administered intravenously at dose levels of 10, 25, and 50 mg/kg and a dose volume of 10 μl/g per day to groups 5-7 respectively. The study was run for ten days.
Animals were monitored individually up to 7 days after final treatment. Daily general health observations included animal mortality, appearance, spontaneous activity, body posture, and food and water intake. Lesions and any other adverse reactions were recorded.

The subject of series [8] is CREB-mediated gene transcription. Put plainly: CREB renilla luciferase reporter assay in HEK293T cells. It counts as cell-based. The note with it: Homo sapiens, HEK-293T, forskolin 10 μM, read-out: CREB transcription inhibition IC50. The method, then: HEK293T cells in a 10-cm plate were transfected with pCRE-RLuc (6.0 μg) with Lipofectamine™ 2000 (Invitrogen, Carlsbad, Calif.) according to manufacturer's protocol. After 3 h, the transfected cells were collected and replated into a 96-well plate (4×10^4 cells/well). The cells were allowed to attach to the bottom of the wells for overnight, when compounds of different concentrations were added to the cells. Forskolin (final concentration of 10 μM, Alexis Biochemicals, San Diego, Calif.) was added 30 min after the addition of the compounds. The cells were then incubated at 37° C. for 4.5 h and the media were removed. The cells were then lysed in renilla luciferase lysis buffer (Promega, Madison, Wis.). To measure luciferase activity, five μL of the lysate was combined with 30 μL of coelenterazine (Nanolight, Pinetop, Ariz.) solution in PBS (10 μg/mL). The sample protein concentration was determined by Dye Reagent Concentrate (Bio-Rad, Hercules, Calif.). The luciferase activity was normalized to protein content in each well and expressed as RLU/μg protein.
On the technique in general: In a reporter assay the amount or activity of a reporter protein is the signal.

In the next series the target is T1, KIX-KID interaction (Homo sapiens, UniProt Q92793).
T1 construct: RLucC-KIX (15 ng) and KID-RLucN-containing cell lysates; made in house
As to the kind of experiment: In vitro renilla luciferase complementation assay. The class given is biochemical. The note with it: 4° C., 24 h, read-out: KIX-KID interaction inhibition IC50. The method, then: RLucC-KIX (15 ng) and KID-RLucN-containing cell lysates (0.5 mg) were mixed together in renilla luciferase lysis buffer (Promega, Madison, Wis.) in the presence of different concentrations of compounds. The final volume of the incubation mixture is 30 μL. The mixture was incubated at 4° C. for 24 h. Then renilla luciferase activity was measured by combining 5 μL of incubation mixture with 30 μL of coelenterazine solution in PBS (pH 7.4, 10 μg/mL).

T1 sequence (Q92793 587-666 limits assumed): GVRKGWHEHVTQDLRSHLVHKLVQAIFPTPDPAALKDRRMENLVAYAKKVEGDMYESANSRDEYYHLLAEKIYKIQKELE

Regarding `NCCCOc1cc2ccccc2cc1C(=O)Nc1ccc(Cl)cc1`, the GI50 in the series on A549 cells [1] turned out to be 3.42 ± 0.43 µM; in the series on HeLa cells [2], 1470 ± 420 nM; in the series with MCF-7 cells [3], 0.84 ± 0.18 µM.
In the same order, the values of `O=C(Nc1ccc(F)cc1)c1cc2ccccc2cc1O` are 6.78 ± 1.32 µM, 2060 ± 310 nM and 2.34 ± 0.51 µM.
With `O=C(Nc1ccc(Br)cc1)c1cc2ccccc2cc1O`, the concentration for 50% growth inhibition (GI50) in the series with A549 cells [1] is 3.98 ± 0.65 µM; with HeLa cells [2], 2120 ± 7 nM; in the series with MCF-7 cells [3], 1.83 ± 0.7 µM.
`O=C(Nc1ccc(I)cc1)c1cc2ccccc2cc1O`: the figures for the GI50 in the series with A549 cells [1], in the series on HeLa cells [2] and in the series with MCF-7 cells [3] were 5.45 ± 0.89 µM, 3740 ± 810 nM and 9.76 ± 6.31 µM, respectively.
The corresponding values for `O=C(Nc1ccc(C(F)(F)F)cc1)c1cc2ccccc2cc1O` are 4.15 ± 0.5 µM, 2400 ± 360 nM and 3.62 ± 2.56 µM.
Regarding `O=C(Nc1ccc([N+](=O)[O-])cc1)c1cc2ccccc2cc1O`, the results for the GI50 in the series with A549 cells [1], in the series with HeLa cells [2] and in the series with MCF-7 cells [3] were 3.28 ± 0.31 µM, 2940 ± 700 nM and 1.5 ± 0.16 µM, respectively.
Regarding `Nc1ccc(NC(=O)c2cc3ccccc3cc2O)cc1`, the results for the GI50 in the series with A549 cells [1], with HeLa cells [2] and in the series with MCF-7 cells [3] were 51.6 ± 11.9 µM, 67200 ± 46300 nM and 28 ± 4.63 µM, respectively.
The corresponding values for `O=C(Nc1ccccc1)c1cc2ccccc2cc1O` are 56.9 ± 7.75 µM, 26900 nM and 4.87 ± 1.27 µM.
The corresponding values for `O=C(Nc1ccc(O)cc1)c1cc2ccccc2cc1O` are 28.1 µM, 42300 ± 6700 nM and 6.8 ± 6.34 µM.
The corresponding values for `COc1ccc(NC(=O)c2cc3ccccc3cc2O)cc1` are 85.7 ± 8.74 µM, 8320 ± 550 nM and 6.55 ± 2.28 µM.
As for `O=C(Nc1ccc(F)c(F)c1)c1cc2ccccc2cc1O`, the GI50 with A549 cells [1] was 3.57 ± 0.23 µM; in the series with HeLa cells [2] it was 2180 ± 170 nM; in the series with MCF-7 cells [3], 2.09 ± 0.82 µM.
The corresponding values for `O=C(Nc1ccc(F)c(Cl)c1)c1cc2ccccc2cc1O` are 3.76 ± 0.31 µM, 2440 ± 560 nM and 5.21 ± 4.92 µM.
In the same order, the values of `CN(C(=O)c1cc2ccccc2cc1O)c1ccc(Cl)cc1` are 29.5 ± 5.27 µM, 12900 ± 4340 nM and 13.6 ± 4.9 µM.
As to `COc1cc2ccccc2cc1C(=O)Nc1ccc(Cl)cc1`, the results for the concentration for 50% growth inhibition (GI50) in the series on A549 cells [1], in the series on HeLa cells [2] and with MCF-7 cells [3] were 62 ± 15.5 µM, 5200 ± 610 nM and 24.8 ± 0.94 µM, respectively.
In the same order, the values of `O=C(Nc1ccccn1)c1cc2ccccc2cc1O` are 75.8 ± 23.1 µM, 11500 ± 8900 nM and 6.25 ± 5.89 µM.
The corresponding values for `O=C(Nc1ccncc1)c1cc2ccccc2cc1O` are 25 ± 10.7 µM, 6140 ± 3030 nM and 15.8 ± 5.29 µM.
As to `O=C(Nc1cnccn1)c1cc2ccccc2cc1O`, the GI50 in the series on A549 cells [1] was determined as 32.2 ± 2.88 µM; with HeLa cells [2], 12600 ± 12000 nM; with MCF-7 cells [3], 12.7 ± 13.2 µM.
Consider `COc1cc2ccccc2cc1C(=O)Nc1ccc(Cl)cc1OC(=O)c1cc2ccccc2cc1OCCCN`, for which the GI50 was 2330 nM with HeLa cells [4], 12.9 µM in the series with A549 cells [5] and 19400 nM with MCF-7 cells [6].
The corresponding values for `COc1cc2ccccc2cc1C(=O)Oc1cc(Cl)ccc1NC(=O)c1cc2ccccc2cc1OCCCN` are 3120 nM, 12.9 µM and 29400 nM.
As to `Cl.Cl.NCCCOc1cc(Cl)ccc1NC(=O)c1cc2ccccc2cc1OCCCN` [Compound 4, 3-(3-Aminopropoxyl)-N-(2-(3-aminopropoxy)-4-chlorophenyl)-2-naphthamide dihydrochloride], the tolerability entry in series [7] (10 mg/kg per day intravenously) is “tolerated very well”; in series [7] (25 mg/kg per day intravenously), “tolerated very well”; in [7] (50 mg/kg per day intravenously), “minor toxicity”. In addition, the body weight loss in series [7] (50 mg/kg, two of three animals at day 5 and day 6, recovery from day 7) is on record as 10-20%.
In the case of `NCCCOc1cc2ccccc2cc1C(=O)Nc1ccc(Cl)cc1OC(=O)c1cc2ccccc2cc1OCCCN` [Compound 7], the tolerability entry in series [7] (10 mg/kg per day intravenously), in series [7] (25 mg/kg per day intravenously) and in [7] (50 mg/kg per day intravenously) was “tolerated very well” each time. In series [7] (50 mg/kg intravenously), the “local effect at injection site” value is given as “severe irritative effect on tail skin”.
Take `O=C(Nc1ccc(Cl)cc1)c1cc2ccccc2cc1O` [drawing 32]: the GI50 in the series on A549 cells [1] stood at 2.88 ± 0.35 µM; in the series with HeLa cells [2], 2520 ± 770 nM; with MCF-7 cells [3], 2.76 ± 0.35 µM.
In the same order, the values of `O=C(Nc1ccc(Cl)cc1)c1cc2ccccc2cc1OP(=O)(O)O` [drawing 33] are 1.94 µM, 2530 ± 580 nM and 1.93 µM.
In the same order, the values of `COc1cc2ccccc2cc1C(=O)Nc1ccc(Cl)cc1OC(=O)c1cc2ccccc2cc1OC` [drawing 35] are 5.25 ± 0.75 µM, 270 ± 190 nM and 2.96 ± 0.66 µM.
The corresponding values for `NCCCOc1cc(Cl)ccc1NC(=O)c1cc2ccccc2cc1OCCCN` [drawing 36] are 2.57 ± 0.41 µM, 480 ± 350 nM and 1.65 ± 0.42 µM.
As to `O=C(Nc1ccc(Cl)cc1)c1cc2ccccc2cc1O` [drawing 53], the GI50 in the series on HeLa cells [4] was 2970 ± 740 nM; in the series on A549 cells [5] it was 4.58 ± 1.52 µM; in the series with MCF-7 cells [6] it was 2560 ± 450 nM. The IC50 amounted to 2200 nM in series [8] and 2.41 µM at KIX-KID interaction.
In the case of `NCCCOc1cc(Cl)ccc1NC(=O)c1cc2ccccc2cc1OCCCN` [drawing 54], the GI50 with HeLa cells [4] was determined as 710 ± 210 nM; with A549 cells [5] it was 1.84 ± 0.11 µM; with MCF-7 cells [6], 1690 ± 390 nM. In addition, the IC50 came to 22900 nM in series [8] and 14.7 µM on KIX-KID interaction.
In the same order, the values of `COc1cc2ccccc2cc1C(=O)Nc1ccc(Cl)cc1OC(=O)c1cc2ccccc2cc1OC` [drawing 55] are 330 ± 70 nM, 8.78 ± 2.55 µM, 3380 ± 490 nM, 1140 nM and 0.25 µM.
For the molecule `NCCCOc1cc2ccccc2cc1C(=O)Nc1ccc(Cl)cc1OC(=O)c1cc2ccccc2cc1OCCCN` [drawing 56], the GI50 with HeLa cells [4] was found to be 290 ± 50 nM; in the series on A549 cells [5], 0.59 ± 0.02 µM; in the series with MCF-7 cells [6], 420 ± 150 nM. The IC50 worked out at 2740 nM in [8] and 7.08 µM on KIX-KID interaction.

A word on the GI50: it is the concentration that inhibits growth by half. A lower GI50 goes with greater sensitivity of the cells. As usually defined, the IC50 is the concentration that gives 50% inhibition.
